Legend:
Type in all cases: in vivo
[1] = tested on: adult unfed cat fleas (Ctenocephalides felis); assay: Ctenocephalides felis oral test; conditions: 48 h
Experimental: Ctenocephalides felis—Oral Test
(§1) Solvent: dimethyl sulfoxide
To produce a suitable preparation of active compound, 10 mg of active compound are dissolved in 0.5 ml solvent, and the concentrate is diluted with cattle blood to the desired concentration.
Approximately 20 adult unfed cat fleas (Ctenocephalides felis) are placed in flea chambers. The blood chamber, sealed with parafilm on the bottom, are filled with cattle blood supplied with compound solution and placed on the gauze covered top of the flea chamber, so that the fleas are able to suck the blood. The blood chamber is heated to 37° C. whereas the flea chamber is kept at room temperature.
After 2 days mortality in % is determined. 100% means all the fleas have been killed; 0% means none of the fleas have been killed.

[2] = tested on: fall armyworm larvae (Spodoptera frugiperda); assay: Spodoptera frugiperda spray test; conditions: in Zea mays, 168 h
Experimental: Spodoptera frukiperda—Spray Test
(§2) Solvent: 78.0 parts by weight acetone • 1.5 parts by weight dimethylformamide
(§3) Emulsifier: alkylarylpolyglycol ether
(§4) To produce a suitable preparation of active compound, 1 part by weight of active compound is mixed with the stated amount of solvents and is diluted with water, containing an emulsifier concentration of 1000 ppm, to the desired concentration. Further test concentrations are prepared by dilution with emulsifier containing water.
Maize (Zea mays) leaf sections are sprayed with a preparation of the active ingredient of the desired concentration. Once dry, the leaf sections are infested with fall armyworm larvae (Spodoptera frugiperda).
After 7 days mortality in % is determined. 100% means all caterpillars have been killed and 0% means none of the caterpillars have been killed.

[3] = tested on: Rhipicephalus microplus larvae (strain Parkhurst, resistant against synthetic pyrethroids); assay: Rhipicephalus (Boophilus) microplus in-vitro contact test, larval cattle tick; conditions: 5 μg/cm^2 (=500 g/ha), after 48 hours, read-out: efficacy (larvae dead or moribund)
Experimental: Rhipicephalus (Boophilus) Microplus—In-Vitro Contact Tests Larval Cattle Tick (Strain Parkhurst, Resistant Against Synthetic Pyrethroids)
(§5) 9 mg compound is solved in 1 mL acetone and diluted with acetone to the desired concentration. 250 μL of the test solution is filled in 25 mL glass test tubes and homogeneously distributed on the inner walls by rotation and tilting on a shaking device (2 h at 30 rpm). With a compound concentration of 900 ppm, an inner surface of 44.7 cm^2 and a homogeneous distribution, a dose of 5 μg/cm^2 is achieved.
After the solvent has evaporated, each test tube is filled with 20-50 cattle tick larvae (Rhipicephalus microplus), closed with a perforated lid and incubated in a horizontal position at 85% relative humidity and 27° C. in an incubator. After 48 hours efficacy is determined. The larvae are patted on the ground of the tubes and negative geotactic behaviour is recorded.
An efficacy of 100% means all larvae are dead or moribund; 0% means no larvae are dead or moribund.

[4] = tested on: adult brown dog ticks (Rhipicephalus sanguineus); assay: Rhipicephalus sanguineus in-vitro contact test with adult brown dog ticks; conditions: 5 μg/cm^2 (=500 g/ha), after 48 hours, read-out: efficacy (ticks dead or moribund)
Experimental: Rhipicephalus sanguineus—In-Vitro Contact Tests with Adult Brown Dog Ticks
as §5
After the solvent has evaporated, each test tube is filled with 5-10 adult brown dog ticks (Rhipicephalus sanguineus), closed with a perforated lid and incubated in a lying position at room temperature and relative humidity. After 48 hours efficacy is determined. The ticks are patted on the ground of the tubes and are incubated on a heating plate at 45-50° C. for at most 5 minutes. Immotile or uncoordinated moving ticks, which are not able to escape the heat by climbing upwards, are marked as dead or moribund.
An efficacy of 100% means all ticks are dead or moribund; 0% means no ticks are dead or moribund.

[5] = tested on: green peach aphid (Myzus persicae); assay: Myzus persicae oral test; conditions: 120 h
Experimental: Solvent: 100 parts by weight acetone
To produce a suitable preparation of active compound, 1 part by weight of active compound is mixed with the stated amount of solvent, and the concentrate is diluted with water to the desired concentration. 50 μL compound solution is filled in microtiter plates and 150 μL IPL41 insect medium (33%+15% sugar) is added to obtain a total volume of 200 μL per well. Afterwards the plates are sealed with parafilm through which a mixed population of the green peach aphid (Myzus persicae) can suck on the compound preparation.
(§6) After 5 days mortality in % is determined. 100% means all aphids have been killed and 0% means none of the aphids have been killed.

[6] = tested on: green peach aphid (Myzus persicae); assay: Myzus persicae spray test; conditions: foliar, 120 h, after 5 days, Chinese cabbage leaf disks
Experimental: Myzus persicae—spray test
as §2, §3, §4
Chinese cabbage (Brassica pekinensis) leaf disks infected with all instars of the green peach aphid (Myzus persicae), are sprayed with a preparation of the active ingredient of the desired concentration.
as §6

[7] = tested on: adult cat fleas (Ctenocephalides felis); assay: Ctenocephalides felis in-vitro contact test, adult cat flea; conditions: after 48 hours, read-out: efficacy (fleas dead or moribund); for pest or weed control at 5 µg/cm2, 500 g/ha: 5 μg/cm^2 (=500 g/ha)
Experimental: as §5, with “Ctenocephalides felis—In-Vitro Contact Tests Adult Cat Flea 9 mg” for “9 mg”
After the solvent has evaporated, each test tube is filled with 5-10 adult cat fleas (Ctenocephalidesfelis), closed with a perforated lid and incubated in a lying position at room temperature and relative humidity.
After 48 hours efficacy is determined. The fleas are patted on the ground of the tubes and are incubated on a heating plate at 45-50° C. for at most 5 minutes. Immotile or uncoordinated moving fleas, which are not able to escape the heat by climbing upwards, are marked as dead or moribund.
An efficacy of 100% means all fleas are dead or moribund; 0% means no fleas are dead or moribund.

[8] = tested on: larvae of the banded cucumber beetle (Diabrotica balteata); assay: Diabrotica balteata spray test; conditions: 168 h, 100 g/ha (=32 μg/well), after 7 days, wheat seeds, read-out: efficacy (seedlings grown like untreated, uninfected control)
Experimental: Diabrotica balteata—spray test
Solvent: 78.0 parts by weight of acetone
1.5 parts by weight of dimethylformamide
as §3
as §4, with “solvent,” for “solvents”, “and the concentrate” for “and”
Soaked wheat seeds (Triticum aestivum) are placed in a multiple well plate filled with agar and some water and are incubated for 1 day to germinate (5 seeds per well). The germinated wheat seeds are sprayed with a test solution containing the desired concentration of the active ingredient. Afterwards each unit is infected with 10-20 larvae of the banded cucumber beetle (Diabrotica balteata).
After 7 days efficacy in % is determined. 100% means all the seedlings have grown up like in the untreated, uninfected control; 0% means none of the seedlings have grown.

[9] = tested on: adult engorged female ticks (Rhipicephalus microplus); assay: Rhipicephalus (Boophilus) microplus injection test; conditions: 168 h, after 7 days, read-out: efficacy (infertile eggs); for pest or weed control at 0.004 mg: 4 μg/animal; for pest or weed control at 0.02 mg: 20 μg/animal
Experimental: Rhipicephalus (Boophilus) microplus—Injection Test
as §1
To produce a suitable preparation of active compound, 10 mg of active compound are dissolved in 0.5 mL solvent, and the concentrate is diluted with solvent to the desired concentration.
Five adult engorged female ticks (Rhipicephalus microplus) are injected with 1 μL compound solution into the abdomen. The ticks are transferred into replica plates and incubated in a climate chamber.
After 7 days egg deposition of fertile eggs is monitored. Eggs where fertility is not visible are stored in a climate chamber till hatching after about 42 days. An efficacy of 100% means all eggs are infertile; 0% means all eggs are fertile.

[10] = tested on: Aedes aegypti strain MONHEIM; assay: Aedes aegypti test (AEDSAE surface treatment & contact assay); conditions: 24 hours after contact, read-out: efficacy (mortality)
Experimental: Aedes Aegypti Test (AEDSAE Surface Treatment & Contact Assay)
(§7) Solvent: Aceton+2000 ppm rapeseed oil methyl ester (RME)
(§8) In order to produce a sufficient, active ingredient containing solution it is necessary to solve the test compound in the solvent-mix (acetone at 2 mg/ml/RME 2000 ppm). This solution is pipetted onto a glazed tile and after evaporation of the acetone, adult mosquitoes of the species Aedes aegypti strain MONHEIM are placed onto the dried surface. The exposure time is 30 minutes. Mortality in percent (%) is determined 24 hours after contact of the insects to the treated surface. 100% mortality means that all tested insects are dead, whereas 0% means that no insect died.

[11] = tested on: Musca domestica strain WHO-N; assay: Musca domestica test (MUSCDO surface treatment & contact assay); conditions: surface concentration 20 mg/m^2, 30 minutes exposure, 24 hours after contact, read-out: efficacy (mortality)
Experimental: Musca domestica Test (MUSCDO Surface Treatment & Contact Assay)
as §7
as §8, with “flies” for “mosquitoes”, “Musca domestica” for “Aedes aegypti”, “WHO-N” for “MONHEIM”

SMILES	mortality at 100 ppm [1] [%]	mortality at 100 g/ha [2] [%]	pest or weed control at 5 µg/cm2 [3] [%]	pest or weed control at 5 µg/cm2, 500 g/ha [4] [%]	mortality at 4 ppm [5] [%]	mortality at 100 g/ha [6] [%]	pest or weed control at 1 µg/cm2, 100 g/ha ([7]; 1 μg/cm^2 (=100 g/ha)) [%]	pest or weed control at 5 µg/cm2, 500 g/ha [7] [%]	pest or weed control at 32 µg/disc, 100 g/ha [8] [%]	pest or weed control at 0.004 mg [9] [%]	pest or weed control at 0.02 mg [9] [%]	mortality at 4 mg/m2 ([10]; surface concentration 4 mg/m^2, 30 minutes exposure) [%]	mortality at 20 mg/m2 ([10]; surface concentration 20 mg/m^2, 30 minutes exposure) [%]	mortality at 20 mg/m2 [11] [%]
CC(NC(=O)c1cc(Br)cc(Br)c1)c1nc(I)nn1-c1ncccn1 (stereo not shown) [Example I-023]	100													
CC(NC(=O)c1cc(Br)cc(OC(F)(F)F)c1)c1nc(I)nn1-c1ncccn1 (racemic) [Example I-020, 3-bromo-N-[1-(5-iodo-2-pyrimidin-2-yl-1,2,4-triazol-3-yl)ethyl]-5-(trifluoromethoxy)benzamide]	100	100	100	100	100	90	100	100	100					
CC(NC(=O)c1cc(Cl)cc(Cl)c1)c1nc(Cl)nn1-c1ncccn1 (stereo not shown) [Example I-005]	100	100		100					100	100	100			
CC(NC(=O)c1cc(Cl)nc(Cl)c1)c1nc(Cl)nn1-c1ncccn1 (stereo not shown) [Example I-006]	100		100	80	90	90		100	100	80				
CC(NC(=O)c1cc(Cl)cc(C(F)(F)F)c1)c1nc(Cl)nn1-c1ncccn1 (stereo not shown) [Example I-004]	90	100	100	100	100				100	100	100	80 to 100	80 to 100	
CC(NC(=O)c1cc(Cl)cc(C(F)(F)F)c1)c1nc(Cl)nn1-c1ccc(Cl)cn1 (racemic) [Example I-017, 3-chloro-N-[1-[5-chloro-2-(5-chloro-2-pyridyl)-1,2,4-triazol-3-yl]ethyl]-5-(trifluoromethyl)benzamide]		83	100						100	100	100			
CC(NC(=O)c1cc(Cl)cc(C(F)(F)F)c1)c1nc(I)nn1-c1ccc(Cl)cn1 (racemic) [Example I-019, 3-chloro-N-[1-[2-(5-chloro-2-pyridyl)-5-iodo-1,2,4-triazol-3-yl]ethyl]-5-(trifluoromethyl)benzamide]		100	90						100	100	100			80 to 100
CC(NC(=O)c1cncc(C(F)(F)F)c1)c1nc(Br)nn1-c1ncccn1 (stereo not shown) [Example I-015]	100		100						80	100				
CC(NC(=O)c1cc(Br)cc(C(F)(F)F)c1)c1nc(I)nn1-c1ncccn1 (stereo not shown) [Example I-022]	90	100	100	80	100				100					
CC(NC(=O)c1cc(Br)cc(C(F)(F)F)c1)c1nc(Br)nn1-c1ncccn1 (racemic) [Example I-009, 3-bromo-N-[1-(5-bromo-2-pyrimidin-2-yl-1,2,4-triazol-3-yl)ethyl]-5-(trifluoromethyl)benzamide]	100	67	100	100	100	70		80	100	100				
